Experimental data from patent US4731451A, “N-((2-oxo-3(2H)benzothiazolyl)methyl)-2-chloroacetanilides” (Monsanto Company, priority 1980, dated 1988).

Assays:
Assay in all cases: Pre-emergent herbicidal activity (Table II)
Assay type in all cases: in vivo
Details in all cases: 2-3 weeks
Canada Thistle = system: Canada Thistle
Description: (§1) The pre-emergence tests are conducted as follows:
(§2) A good grade of top soil is placed in aluminum pans and compacted to a depth of three-eighths to one-half inch from the top of the pan. On the top of the soil is placed a predetermined number of seeds or vegetative propagules of various plant species. The soil required to level fill the pans after seeding or adding vegetative propagules is weighed into a pan. A known amount of the active ingredient applied in a solvent or as a wettable powder suspension and the soil are thoroughly mixed, and used as a cover layer for prepared pans. After treatment, the pans are moved into a greenhouse bench where they are watered from below as needed to give adequate moisture for germination and growth.
(§3) Approximately 2-3 weeks after seeding and treating, the plants are observed and the results recorded. The herbicidal rating is obtained by means of fixed scale based on the percent injury of each plant species. The ratings are defined as follows: […]
(§4) The plant species utilized in one set of tests, the data for which are shown in Table II, are identified by letter in accordance with the following legend: […]

Downy Brome = system: Downy Brome
Description: as §1, §2, §3, §4

Johnsongrass = system: Johnsongrass
Description: as §1, §2, §3, §4

Quackgrass = system: Quackgrass
Description: as §1, §2, §3, §4

Morningglory = system: Morningglory
Description: as §1, §2, §3, §4

Smartweed = system: Smartweed
Description: as §1, §2, §3, §4

Lambsquarters = system: Lambsquarters
Description: as §1, §2, §3, §4

Velvetleaf = system: Velvetleaf
Description: as §1, §2, §3, §4

Barnyardgrass = system: Barnyardgrass
Description: as §1, §2, §3, §4

Cocklebur = system: Cocklebur
Description: as §1, §2, §3, §4

Yellow Nutsedge = system: Yellow Nutsedge
Description: as §1, §2, §3, §4
Further: ranges in brackets are in %.

SMILES: CCC1=C(N(Cn2c(=O)sc3ccccc32)C(=O)CCl)C(CC)CCC1 (stereo not drawn) [Example 5, N--[(2-oxo-3(2H)--benzothiazolyl)methyl]-N--(2,6-diethyl-1-cyclohexen-1-yl)-2-chloro-acetamide]
- Herbicidal rating (Canada Thistle; 5.6 kg/ha): 0 (0-24)
- Herbicidal rating (Canada Thistle; 11.2 kg/ha): 0 (0-24)
- Herbicidal rating (Downy Brome; 5.6 kg/ha): 0 (0-24)
- Herbicidal rating (Downy Brome; 11.2 kg/ha): 0 (0-24)
- Herbicidal rating (Johnsongrass; 5.6 kg/ha): 0 (0-24)
- Herbicidal rating (Johnsongrass; 11.2 kg/ha): 0 (0-24)
- Herbicidal rating (Quackgrass; 5.6 kg/ha): 0 (0-24)
- Herbicidal rating (Quackgrass; 11.2 kg/ha): 0 (0-24)
- Herbicidal rating (Morningglory; 5.6 kg/ha): 0 (0-24)
- Herbicidal rating (Morningglory; 11.2 kg/ha): 0 (0-24)
- Herbicidal rating (Smartweed; 5.6 kg/ha): 0 (0-24)
- Herbicidal rating (Smartweed; 11.2 kg/ha): 0 (0-24)
- Herbicidal rating (Lambsquarters; 5.6 kg/ha): 1 (25-49)
- Herbicidal rating (Lambsquarters; 11.2 kg/ha): 1 (25-49)
- Herbicidal rating (Velvetleaf; 5.6 kg/ha): 0 (0-24)
- Herbicidal rating (Velvetleaf; 11.2 kg/ha): 0 (0-24)
- Herbicidal rating (Barnyardgrass; 5.6 kg/ha): 1 (25-49)
- Herbicidal rating (Barnyardgrass; 11.2 kg/ha): 1 (25-49)
- Herbicidal rating (Cocklebur; 5.6 kg/ha): 0 (0-24)
- Herbicidal rating (Cocklebur; 11.2 kg/ha): 0 (0-24)
- Herbicidal rating (Yellow Nutsedge; 5.6 kg/ha): 0 (0-24)
- Herbicidal rating (Yellow Nutsedge; 11.2 kg/ha): 0 (0-24)

SMILES: CC1=C(N(Cn2c(=O)sc3cc(Br)ccc32)C(=O)CCl)C(C)CCC1 (stereo not drawn) [Example 7, N--[(6-bromo-2-oxo-3(2H)--benzothiazolyl)methyl]-N--(2,6-dimethyl-1-cyclohexen-1-yl)-2-chloroacetamide]
- Herbicidal rating (Canada Thistle; 5.6 kg/ha): 0 (0-24)
- Herbicidal rating (Canada Thistle; 11.2 kg/ha): 0 (0-24)
- Herbicidal rating (Downy Brome; 5.6 kg/ha): 0 (0-24)
- Herbicidal rating (Downy Brome; 11.2 kg/ha): 0 (0-24)
- Herbicidal rating (Johnsongrass; 5.6 kg/ha): 0 (0-24)
- Herbicidal rating (Johnsongrass; 11.2 kg/ha): 0 (0-24)
- Herbicidal rating (Quackgrass; 5.6 kg/ha): 0 (0-24)
- Herbicidal rating (Quackgrass; 11.2 kg/ha): 0 (0-24)
- Herbicidal rating (Morningglory; 5.6 kg/ha): 0 (0-24)
- Herbicidal rating (Morningglory; 11.2 kg/ha): 0 (0-24)
- Herbicidal rating (Smartweed; 5.6 kg/ha): 0 (0-24)
- Herbicidal rating (Smartweed; 11.2 kg/ha): 0 (0-24)
- Herbicidal rating (Lambsquarters; 5.6 kg/ha): 0 (0-24)
- Herbicidal rating (Lambsquarters; 11.2 kg/ha): 1 (25-49)
- Herbicidal rating (Velvetleaf; 5.6 kg/ha): 0 (0-24)
- Herbicidal rating (Velvetleaf; 11.2 kg/ha): 0 (0-24)
- Herbicidal rating (Barnyardgrass; 5.6 kg/ha): 1 (25-49)
- Herbicidal rating (Barnyardgrass; 11.2 kg/ha): 1 (25-49)
- Herbicidal rating (Cocklebur; 5.6 kg/ha): 0 (0-24)
- Herbicidal rating (Cocklebur; 11.2 kg/ha): 0 (0-24)
- Herbicidal rating (Yellow Nutsedge; 5.6 kg/ha): 0 (0-24)
- Herbicidal rating (Yellow Nutsedge; 11.2 kg/ha): 0 (0-24)

SMILES: CCOc1ccc2c(c1)sc(=O)n2CN(C(=O)CCl)C1=C(C)C(C)CCC1 (stereo not drawn) [Example 8, N--[(6-ethoxy-2-oxo-3(2H)--benzothiazolyl)methyl]-N--(2,3-dimethyl-1-cyclohexen-1-yl)-2-chloroacetamide]
- Herbicidal rating (Canada Thistle; 5.6 kg/ha): 0 (0-24)
- Herbicidal rating (Canada Thistle; 11.2 kg/ha): 0 (0-24)
- Herbicidal rating (Downy Brome; 5.6 kg/ha): 0 (0-24)
- Herbicidal rating (Downy Brome; 11.2 kg/ha): 0 (0-24)
- Herbicidal rating (Johnsongrass; 5.6 kg/ha): 0 (0-24)
- Herbicidal rating (Johnsongrass; 11.2 kg/ha): 0 (0-24)
- Herbicidal rating (Quackgrass; 5.6 kg/ha): 0 (0-24)
- Herbicidal rating (Quackgrass; 11.2 kg/ha): 0 (0-24)
- Herbicidal rating (Morningglory; 5.6 kg/ha): 0 (0-24)
- Herbicidal rating (Morningglory; 11.2 kg/ha): 0 (0-24)
- Herbicidal rating (Smartweed; 5.6 kg/ha): 0 (0-24)
- Herbicidal rating (Smartweed; 11.2 kg/ha): 0 (0-24)
- Herbicidal rating (Lambsquarters; 5.6 kg/ha): 0 (0-24)
- Herbicidal rating (Lambsquarters; 11.2 kg/ha): 0 (0-24)
- Herbicidal rating (Velvetleaf; 5.6 kg/ha): 0 (0-24)
- Herbicidal rating (Velvetleaf; 11.2 kg/ha): 0 (0-24)
- Herbicidal rating (Barnyardgrass; 5.6 kg/ha): 1 (25-49)
- Herbicidal rating (Barnyardgrass; 11.2 kg/ha): 0 (0-24)
- Herbicidal rating (Cocklebur; 5.6 kg/ha): 0 (0-24)
- Herbicidal rating (Yellow Nutsedge; 5.6 kg/ha): 0 (0-24)
- Herbicidal rating (Yellow Nutsedge; 11.2 kg/ha): 0 (0-24)

SMILES: CC1=C(N(Cn2c(=O)oc3ccccc32)C(=O)CCl)C(C)CCC1 (stereo not drawn) [Example 11, N--[(2-oxo-3(2H)--benzoxazolyl)methyl]-N--(2,6-dimethyl-1-cyclohexen-1-yl)-2-chloro-amide]
- Herbicidal rating (Canada Thistle; 5.6 kg/ha): 0 (0-24)
- Herbicidal rating (Canada Thistle; 11.2 kg/ha): 0 (0-24)
- Herbicidal rating (Downy Brome; 5.6 kg/ha): 3 (75-100)
- Herbicidal rating (Downy Brome; 11.2 kg/ha): 3 (75-100)
- Herbicidal rating (Johnsongrass; 5.6 kg/ha): 0 (0-24)
- Herbicidal rating (Johnsongrass; 11.2 kg/ha): 0 (0-24)
- Herbicidal rating (Quackgrass; 5.6 kg/ha): 1 (25-49)
- Herbicidal rating (Quackgrass; 11.2 kg/ha): 3 (75-100)
- Herbicidal rating (Morningglory; 5.6 kg/ha): 0 (0-24)
- Herbicidal rating (Morningglory; 11.2 kg/ha): 0 (0-24)
- Herbicidal rating (Smartweed; 5.6 kg/ha): 0 (0-24)
- Herbicidal rating (Smartweed; 11.2 kg/ha): 0 (0-24)
- Herbicidal rating (Lambsquarters; 5.6 kg/ha): 2 (50-74)
- Herbicidal rating (Lambsquarters; 11.2 kg/ha): 1 (25-49)
- Herbicidal rating (Velvetleaf; 5.6 kg/ha): 0 (0-24)
- Herbicidal rating (Velvetleaf; 11.2 kg/ha): 0 (0-24)
- Herbicidal rating (Barnyardgrass; 5.6 kg/ha): 3 (75-100)
- Herbicidal rating (Barnyardgrass; 11.2 kg/ha): 3 (75-100)
- Herbicidal rating (Cocklebur; 5.6 kg/ha): 0 (0-24)
- Herbicidal rating (Cocklebur; 11.2 kg/ha): 0 (0-24)
- Herbicidal rating (Yellow Nutsedge; 5.6 kg/ha): 3 (75-100)
- Herbicidal rating (Yellow Nutsedge; 11.2 kg/ha): 1 (25-49)
